Results published in ChEMBL document CHEMBL3259697, “Identification of type II and III DDR2 inhibitors” (J Med Chem, 2014).
Active and inactive are the calls of the source. The calls are words filed in the database; no cut-off is given here.

Legend:
[1] = target: T1, Discoidin domain-containing receptor 2 (Homo sapiens, UniProt Q16832)
T1 sequence (Q16832 whole entry): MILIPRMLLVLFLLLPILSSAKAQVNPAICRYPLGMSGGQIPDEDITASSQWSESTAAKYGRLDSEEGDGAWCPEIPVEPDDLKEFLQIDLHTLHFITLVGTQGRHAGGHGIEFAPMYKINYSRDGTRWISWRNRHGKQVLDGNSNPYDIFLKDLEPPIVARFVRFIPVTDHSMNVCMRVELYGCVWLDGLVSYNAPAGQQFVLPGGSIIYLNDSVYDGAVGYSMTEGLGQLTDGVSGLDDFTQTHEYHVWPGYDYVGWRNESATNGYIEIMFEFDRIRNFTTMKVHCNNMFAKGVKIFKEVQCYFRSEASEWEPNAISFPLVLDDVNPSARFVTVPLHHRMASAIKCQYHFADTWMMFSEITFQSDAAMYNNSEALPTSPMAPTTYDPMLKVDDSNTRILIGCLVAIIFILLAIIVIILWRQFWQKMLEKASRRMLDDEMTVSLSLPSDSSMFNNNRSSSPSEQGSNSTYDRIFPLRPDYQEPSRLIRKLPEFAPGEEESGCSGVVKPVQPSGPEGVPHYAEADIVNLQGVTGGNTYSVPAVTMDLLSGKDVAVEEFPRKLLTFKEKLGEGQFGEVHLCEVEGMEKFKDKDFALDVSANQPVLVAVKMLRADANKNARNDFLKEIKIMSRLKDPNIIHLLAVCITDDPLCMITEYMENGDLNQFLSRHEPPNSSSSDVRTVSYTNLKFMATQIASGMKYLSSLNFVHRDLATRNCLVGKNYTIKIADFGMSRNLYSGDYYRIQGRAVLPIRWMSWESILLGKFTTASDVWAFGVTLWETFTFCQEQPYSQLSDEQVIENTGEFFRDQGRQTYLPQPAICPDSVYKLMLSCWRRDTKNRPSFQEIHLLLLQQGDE
Description: Binding affinity to human acrylodan-labeled N-terminal His-tagged DDR2 (558 to 855 aa) by FLiK assay

[2] = target: T1, Discoidin domain-containing receptor 2; remark: listed apart in the source
Description: Inhibition of wild type DDR2 (unknown origin) preincubated for 30 mins before substrate addition by FRET assay

[3] = target: Discoidin domain-containing receptor 2 (Homo sapiens, UniProt Q16832, T654M); assay: Inhibition of DDR2 T654M mutant (unknown origin) preincubated for 30 mins before substrate addition by FRET assay
Chain of Discoidin domain-containing receptor 2 (Homo sapiens, UniProt Q16832, T654M) (Q16832 22-855 T654M limits assumed): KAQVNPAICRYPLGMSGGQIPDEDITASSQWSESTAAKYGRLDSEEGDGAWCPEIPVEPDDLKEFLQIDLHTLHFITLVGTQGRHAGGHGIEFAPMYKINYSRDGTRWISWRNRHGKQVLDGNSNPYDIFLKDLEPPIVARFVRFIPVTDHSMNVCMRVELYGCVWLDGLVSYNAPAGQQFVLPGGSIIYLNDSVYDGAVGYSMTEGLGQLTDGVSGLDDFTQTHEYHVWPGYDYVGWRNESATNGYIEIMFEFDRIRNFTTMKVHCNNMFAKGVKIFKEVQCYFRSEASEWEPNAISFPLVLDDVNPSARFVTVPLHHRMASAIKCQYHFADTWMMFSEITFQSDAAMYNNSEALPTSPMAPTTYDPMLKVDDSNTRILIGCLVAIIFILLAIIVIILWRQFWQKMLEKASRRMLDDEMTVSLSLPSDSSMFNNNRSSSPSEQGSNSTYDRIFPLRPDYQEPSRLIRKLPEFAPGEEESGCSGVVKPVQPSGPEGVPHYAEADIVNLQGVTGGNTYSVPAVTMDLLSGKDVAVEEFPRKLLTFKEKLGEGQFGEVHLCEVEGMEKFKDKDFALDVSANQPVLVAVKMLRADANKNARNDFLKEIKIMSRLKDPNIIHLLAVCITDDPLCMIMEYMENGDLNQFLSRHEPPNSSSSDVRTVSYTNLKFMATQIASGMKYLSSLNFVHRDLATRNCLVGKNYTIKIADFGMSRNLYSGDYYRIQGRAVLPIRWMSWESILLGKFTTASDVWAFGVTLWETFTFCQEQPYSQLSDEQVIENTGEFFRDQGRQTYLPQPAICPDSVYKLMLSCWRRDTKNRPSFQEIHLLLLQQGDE

[4] = target: T1, Discoidin domain-containing receptor 2; assay: Inhibition of DDR2 (unknown origin) after 120 mins by radiometric assay in presence of gamma-[33P]-ATP
[5] = target: Epithelial discoidin domain-containing receptor 1 (Homo sapiens, UniProt Q08345); assay: Inhibition of DDR1 (unknown origin) after 120 mins by radiometric assay in presence of gamma-[33P]-ATP
Chain of Epithelial discoidin domain-containing receptor 1 (Q08345 whole entry, the tested form may be a part): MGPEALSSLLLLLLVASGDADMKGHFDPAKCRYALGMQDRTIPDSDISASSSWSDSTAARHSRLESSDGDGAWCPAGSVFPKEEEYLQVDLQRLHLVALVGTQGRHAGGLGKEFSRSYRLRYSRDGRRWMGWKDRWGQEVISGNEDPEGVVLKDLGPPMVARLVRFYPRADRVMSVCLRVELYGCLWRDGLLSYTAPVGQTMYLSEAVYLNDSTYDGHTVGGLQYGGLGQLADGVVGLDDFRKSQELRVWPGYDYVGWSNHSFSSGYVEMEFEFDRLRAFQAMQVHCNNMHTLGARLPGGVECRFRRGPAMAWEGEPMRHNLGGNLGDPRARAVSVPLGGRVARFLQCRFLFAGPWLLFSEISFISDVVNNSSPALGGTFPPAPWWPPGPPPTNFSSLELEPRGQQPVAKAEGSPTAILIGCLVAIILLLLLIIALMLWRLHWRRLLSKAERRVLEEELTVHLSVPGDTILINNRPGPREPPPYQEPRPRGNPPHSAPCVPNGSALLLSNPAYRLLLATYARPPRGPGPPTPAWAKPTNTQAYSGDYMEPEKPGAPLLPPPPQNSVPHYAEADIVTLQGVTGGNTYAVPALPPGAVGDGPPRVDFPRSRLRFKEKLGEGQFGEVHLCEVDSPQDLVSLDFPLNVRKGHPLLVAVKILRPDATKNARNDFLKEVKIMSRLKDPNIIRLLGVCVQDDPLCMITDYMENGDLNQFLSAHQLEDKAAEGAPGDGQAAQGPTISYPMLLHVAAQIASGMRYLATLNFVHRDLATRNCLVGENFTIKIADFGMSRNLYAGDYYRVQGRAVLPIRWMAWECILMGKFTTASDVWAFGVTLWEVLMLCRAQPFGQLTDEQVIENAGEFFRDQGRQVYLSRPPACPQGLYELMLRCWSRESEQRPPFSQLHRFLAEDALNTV

[6] = target: T2, Discoidin domain-containing receptor 2 (Homo sapiens) (UniProt Q16832); assay: Reversible binding affinity to human acrylodan-labeled N-terminal His-tagged DDR2 (558 to 855 aa) at 100 nM by fluorescence spectroscopy
T2 sequence (whole entry): T1 sequence (Q16832 whole entry)

[7] = target: T1, Discoidin domain-containing receptor 2; assay: Binding affinity to human DDR2 by Ambit assay
[8] = target: T1, Discoidin domain-containing receptor 2; assay: Binding affinity to human acrylodan-labeled N-terminal His-tagged DDR2 (558 to 855 aa) by fluorescence spectroscopy

Row | SMILES | Kd [1] [nM] | IC50 [2] [nM] | IC50 [3] [nM] | IC50 [4] [nM] | IC50 [5] [nM] | Activity [6] | Kd [7] [nM] | Kd [8] [nM]
1 | O=C(Nc1ccc(OCCN2CCOCC2)c2ccccc12)c1cc(F)cc(N2CCOCC2)c1 | 915 | 10900 | – | – | – | – | – | –
2 | CC(C)(C)c1cc(NC(=O)Nc2nc(CCOCc3ccccc3)cs2)n(-c2cccc(CC(=O)O)c2)n1 | > 1000 | 10700 | 1670 | – | – | – | – | –
3 | CC(C)(C)c1cc(NC(=O)Nc2cccc(Nc3ncnc4ccccc34)c2)n(-c2cccc(N)c2)n1 | > 1000 | 2 | 73 | 75 | – | – | – | –
4 | Nc1c(-c2ccccc2)oc2ccccc2c1=O | > 1000 | 80800 | ≥ 100000 | – | – | – | – | –
5 | CCOCCNc1cccc(-n2nc(C(C)(C)C)cc2NC(=O)Nc2ccc(OCCN3CCOCC3)c3ccccc23)c1 | > 1000 | 14400 | – | – | – | – | – | –
6 | CSc1ccc(-c2nc3cnccn3c2NC2CCCCC2)cc1 | > 1000 | – | – | – | – | – | – | –
7 | Cc1ccc(-n2nc(C(C)(C)C)cc2NC(=O)Nc2nccs2)cc1 | 702 | 4700 | 1150 | – | – | – | – | –
8 | CC(C)(C)c1cc(NC(=O)Nc2ccccc2)n(-c2cccc(N)c2)n1 | > 1000 | 9410 | 2500 | – | – | – | – | –
9 | COc1ccccc1NC(=O)c1sc2nc(C)c(C(=O)Nc3ccc(C)cc3C)c(-c3ccc(NC(C)=O)cc3)c2c1N | > 1000 | – | – | – | – | – | – | –
10 | CC(C)(C)c1cc(NC(=O)Nc2nccs2)n(-c2ccc(CC(=O)O)cc2)n1 | > 1000 | 9170 | 820 | – | – | – | – | –
11 | O=C(O)Cc1ccc(-n2nc(C3CCCC3)cc2NC(=O)Nc2nc(CCOCc3ccccc3)cs2)cc1 | > 1000 | 2170 | 1840 | – | – | – | – | –
12 | CC(C)(C)c1cc(NC(=O)Nc2cccc3ccccc23)n(-c2cccc([N+](=O)[O-])c2)n1 | 428 | 332 | ≥ 100000 | – | – | – | – | –

The remaining lines, values ahead:

Row | Kd [1] [nM] | IC50 [2] [nM] | IC50 [3] [nM] | IC50 [4] [nM] | IC50 [5] [nM] | Activity [6] | Kd [7] [nM] | Kd [8] [nM] | SMILES
13 | 15 | 183 | 808 | – | – | – | – | – | Cc1cccc(-n2nc(C(C)(C)C)cc2NC(=O)Nc2ccc(Cl)cc2)c1
14 | 93 | 3 | 1 | 18 | – | – | – | – | CC(C)(C)c1cc(NC(=O)Nc2ccc(Nc3ncnc4ccccc34)cc2)n(-c2cccc(N)c2)n1
15 | 63 | 19 | 2 | 65 | 68 | – | – | – | Cc1ccc(-n2nc(C(C)(C)C)cc2NC(=O)Nc2nc(CCOCc3ccncc3)cs2)cc1
16 | 424 | 1230 | 76 | – | – | – | – | – | CC(C)(C)c1cc(NC(=O)Nc2nc(CCOCc3ccc(F)cc3)cs2)n(-c2ccc(CC(=O)O)cc2)n1
17 | 406 | 3040 | 230 | – | – | – | – | – | Cc1ccc(-n2nc(C(C)(C)C)cc2NC(=O)Nc2nc(CCOCc3ccc(F)cc3)cs2)cc1
18 | 382 | 2230 | 670 | – | – | – | – | – | CC(C)(C)c1cc(NC(=O)Nc2nc(CCOCc3ccccc3)cs2)n(-c2ccc(CC(=O)O)cc2)n1
19 | 30 | 29 | 687 | – | – | – | – | – | CCC(=O)Nc1cccc(-n2nc(C(C)(C)C)cc2NC(=O)Nc2ccc(OCCN3CCOCC3)c3ccccc23)c1
20 | 412 | 856 | 1230 | – | – | – | – | – | CC(C)(C)c1cc(NC(=O)Nc2ccc(Cl)cc2)n(-c2cccc([N+](=O)[O-])c2)n1
21 | 15 | 558 | 717 | – | – | Active | 15 | 3.8 | CC(C)(C)c1cc(NC(=O)Nc2ccc(Cl)cc2)n(-c2cccc(N)c2)n1
22 | 385 | 1560 | 380 | – | – | – | – | – | O=C(O)Cc1cccc(-n2nc(C3CCCC3)cc2NC(=O)Nc2nc(CCOCc3ccccc3)cs2)c1
23 | 422 | 24 | 450 | – | – | – | – | – | NC(=O)c1c(OCc2c(F)cc(Br)cc2F)nsc1NC(=O)NCCCCN1CCCC1 [OSI-632]
24 | 20 | 8 | 72 | – | – | – | – | – | CC(C)(C)c1cc(NC(=O)Nc2ccc(OCCN3CCOCC3)c3ccccc23)n(-c2cccc(N)c2)n1
25 | 252 | 408 | ≥ 100000 | – | – | – | – | – | Cc1ccc(-n2nc(C(C)(C)C)cc2NC(=O)Nc2cccc3ccccc23)cc1
